Reference: patent US11806340B2, “Methods of diagnosing and treating conduct disorder” (THE CHILDREN'S HOSPITAL OF PHILADELPHIA, priority 2015, dated 2023)

Legend:
[1] = prior human studies; cited from earlier work
[2] = tested on: ADHD subjects with CNV in an mGluR network gene; assay: Open-label Phase Ib clinical trial of NFC-1 in adolescent ADHD subjects with a genetic alteration in an mGluR network gene; format: in vivo, human
Experimental: An open-label Phase Ib clinical trial was conducted to investigate the safety, pharmacokinetics and efficacy of NFC-1 (fasoracetam monohydrate) in adolescent subjects between the ages of 12 and 17 previously diagnosed with ADHD who also had at least one genetic alteration in an mGluR network gene.
The study included 30 ADHD subjects who were between ages 12 and 17, of any ancestry or race, of weight within the 5th to 95th percentile for their age, and otherwise judged to be in good medical health. […] Seventeen of the 30 subjects have a CNV in a tier 1 mGluR network gene, while 7 subjects have a CNV in a tier 2 gene and 6 in a tier 3 gene.
Exclusion criteria comprised subjects suffering from a clinically significant illness, either mental or physical, that, in the investigator's opinion, might confound the results of the study or that might prevent them from completing the study, subjects that are pregnant or nursing, subjects that test positive for illicit drugs of that have a history of drug abuse, subjects that consume alcoholic beverages, or subjects for which the investigator is otherwise concerned regarding their compliance or suitability.
NFC-1 capsules of either 50 mg or 200 mg comprising fasoracetam monohydrate as active ingredient and placebo capsules comprising microcellulose were used for the study. The design of the trial was a phone screening (1 day), enrollment phase (1 to 2 days), a wash-out phase for subjects currently on ADHD medications (1-14 days), pharmacokinetic (PK) assessment (2 days), followed by a dose-escalation phase (35 days) and a follow-up phone visit approximately four weeks after the last dose, for a maximum of 127 days. All ADHD medications were discontinued during the wash-out phase prior to the study. The wash-out period for stimulants was 2-3 days and that for atomoxetine or noradrenergic agonists was 10-12 days. No new ADHD medications were started during the study.
A dose-escalation phase of the trial ran over a 5-week period, after the initial wash-out period and the PK and initial safety assessments. […]

[3] = tested on: dementia-related cognitive impairment; details: cited from earlier work

## O=C1CC[C@H](C(=O)N2CCCCC2)N1 [Fasoracetam, fasoracetam]
[1]
  bioavailability: 79%-97%

## O=C1CC[C@H](C(=O)N2CCCCC2)N1 [NFC-1, fasoracetam monohydrate]
[2]; all eight subjects with OCD symptoms, during therapy
  OCD symptoms: improved
[2]; one subject with OCD and a history of ear scratching, during therapy
  dermatillomania symptoms (ear scratching, bleeding ulcer): reduced
[2]; week 5, one subject meeting conduct disorder criteria, decreased from 16 at week 1 (placebo week), 50-400 mg bid dose escalation
  conduct disorder symptoms, Vanderbilt items 27-40 score: 12
[3]; Phase I-III trials, dementia-related cognitive impairment
  safety and tolerability: generally safe and well tolerated
[3]; Phase III data, cerebral infarct patients and adult dementia patients with cerebrovascular diseases
  effects on psychiatric symptoms: beneficial effects
[3]; Phase III trials
  efficacy in dementia: did not show sufficient efficacy
